Experimental data as given in patent US20230295130A1, “COMPOUND USEFUL AS CDK7 KINASE INHIBITOR AND USE THEREOF” (TYK MEDICINES, INC., priority 2020, published 2023).
pIC50: −log10 of the molar value.

Key:
[1] = system: colorectal cancer cells WiDr; assay: Cell anti-proliferation experiment, MTT (Table 2); assay type: cell-based, human; conditions: incubate 3 days
Source text: (§1) Human breast cancer cells MDA-MB 231, MDA-MB453, ovarian cancer cells OVCAR3 and A2780, colorectal cancer cells HCT-116 and WiDr, and lung cancer cell Calu-6 were purchased from BNCC. DMEM medium (Bio-Channel), DMSO (dimethyl sulfoxide), MTT (thiazole blue), 0.25% EDTA-Tripsin (pancreatin digestive juice), 1×PBS (phosphate buffer, PH7.2), 96-well plate (Corning), fetal bovine serum (FBS), 10,000 U/mL penicillin-G/streptomycin, high-speed freezing centrifuge (EPPENDORF 5810R), enzyme-linked immunosorbent assay (Tecan Spark).
(§2) 1. Cell Plating • A) Tumor cells were cultured to 80-90% density in DMEM (high sugar, containing 10% FBS and 100 U/mL penicillin-G/streptomycin) at 37° C., 5% CO2 and saturated humidity. • B) The culture medium was removed from the 10 cm culture dish. • C) Cells were washed with 10 ml 1×PBS. • D) 4 ml of 0.25% EDTA-Tripsin was added to an incubator to digest pancreatin for 5 minutes at 37° C. and 5% CO2, transferred to a 15 ml centrifuge tube, centrifuged for 5 minutes at 200 g, and supernatant was discarded to obtain cell precipitation. • E) The cell precipitation was resuspended with 4 ml DMEM medium, counted and adjusted to 50,000 cells/ml. • F) Cell suspension was added to a 96-well plate with a volume of 100 μL per well and cultured overnight in a 5% CO2 incubator at 37° C.
(§3) Compound Dilution • A) Preparing the tested compound gradient dilution solution: the tested compounds were prepared into 10 mM and 1 mM storage solution respectively. Firstly, 1 μl and 0.5 μl of 10 mM storage solution were dissolved in 1 ml of DMSO-free culture solution, respectively, to obtain diluted compounds with concentrations of 10 and 5 μM. Then, 1.5 μl of 1 mM storage solution was dissolved in 1.5 ml of DMSO-free culture solution to obtain a dilution compound with a concentration of 1 μM, and then diluted with a 3-fold continuous gradient with […] culture solution for a total of 7 concentrations. The concentrations of all 10 diluted compounds mentioned above were as follows: • 10 μM, 5 μM, 1 μM, 333.33 nM, 111.11 nM, 37.03 nM, 12.35 nM, 4.15 nM, 1.37 nM, 0.46 nM • B) After full mixing, 100 μL of culture compound solution was taken to replace the culture solution in the cell culture plate, with 4 duplicated wells at each concentration; • C) The cells were transferred to incubator to incubate for 3 days.
(§4) 3. MTT Detection • A) The cell culture plate was taken out and added with 5 mg/ml MTT 10 μL in the biosafety cabinet; • B) The cell culture plate was put back into the incubator and continued to incubate for 3 hours; • C) The cell culture plate was taken out to remove the culture solution, 100 μL isopropanol (containing 0.4 mM HCl, 0.1% NP-40) was added, shaking at room temperature for 30 minutes; • D) The absorbance value was measured at 570 nm on TECAN enzyme linked immunosorbent assay.

[2] = system: ovarian cancer cells A2780; assay: Cell anti-proliferation experiment, MTT (Table 2); assay type: cell-based, human; conditions: incubate 3 days
Source text: as §1, §2, §3, §4

[3] = system: ovarian cancer cells OVCAR3; assay: Cell anti-proliferation experiment, MTT (Table 2); assay type: cell-based; conditions: Homo sapiens, OVCAR-3, 72 h, incubate 3 days
Source text: as §1, §2, §3, §4

[4] = system: breast cancer cells MDA-MB 231; assay: Cell anti-proliferation experiment, MTT (Table 2); assay type: cell-based; conditions: Homo sapiens, MDA-MB-231, 72 h, incubate 3 days
Source text: as §1, §2, §3, §4

lung cancer cell Calu-6 = assay: Cell anti-proliferation experiment, MTT (Table 2); assay type: cell-based; conditions: Homo sapiens, Calu-6, 72 h, incubate 3 days
Source text: as §1, §2, §3, §4

[5] = system: colorectal cancer cells HCT-116; assay: Cell anti-proliferation experiment, MTT (Table 2); assay type: cell-based; conditions: Homo sapiens, HCT-116, 72 h, incubate 3 days
Source text: as §1, §2, §3, §4

[6] = system: breast cancer cells MDA-MB453; assay: Cell anti-proliferation experiment, MTT (Table 2); assay type: cell-based; conditions: Homo sapiens, MDA-MB-453, 72 h, incubate 3 days
Source text: as §1, §2, §3, §4

[7] = target: T1, CDK7/Cyclin H/MAT1 kinase (Homo sapiens (Human), UniProt P50613); assay: Enzyme activity test, mobility shift assay (Table 3); assay type: biochemical; conditions: 2 mM ATP, pre-incubated 0 and 60 minutes
T1 sequence (P50613 whole entry): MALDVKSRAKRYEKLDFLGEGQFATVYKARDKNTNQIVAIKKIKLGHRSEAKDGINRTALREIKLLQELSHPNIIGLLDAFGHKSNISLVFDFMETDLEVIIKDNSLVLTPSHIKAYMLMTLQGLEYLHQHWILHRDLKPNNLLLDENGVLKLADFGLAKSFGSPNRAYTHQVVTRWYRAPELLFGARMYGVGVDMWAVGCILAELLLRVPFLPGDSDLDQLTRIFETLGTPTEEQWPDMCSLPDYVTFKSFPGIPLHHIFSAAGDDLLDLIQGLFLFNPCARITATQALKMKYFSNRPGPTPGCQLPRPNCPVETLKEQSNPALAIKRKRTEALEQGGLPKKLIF
T1 sequence (P51946 whole entry partner): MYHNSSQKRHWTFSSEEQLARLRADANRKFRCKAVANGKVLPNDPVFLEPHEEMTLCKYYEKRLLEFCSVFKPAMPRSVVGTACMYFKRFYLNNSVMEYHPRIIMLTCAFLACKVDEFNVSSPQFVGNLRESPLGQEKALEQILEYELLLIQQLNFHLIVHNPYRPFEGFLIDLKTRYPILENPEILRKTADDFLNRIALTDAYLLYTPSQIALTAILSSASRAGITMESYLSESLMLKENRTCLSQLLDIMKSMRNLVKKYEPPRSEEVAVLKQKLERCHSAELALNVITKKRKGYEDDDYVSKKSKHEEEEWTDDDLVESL
T1 sequence (P51948 whole entry partner): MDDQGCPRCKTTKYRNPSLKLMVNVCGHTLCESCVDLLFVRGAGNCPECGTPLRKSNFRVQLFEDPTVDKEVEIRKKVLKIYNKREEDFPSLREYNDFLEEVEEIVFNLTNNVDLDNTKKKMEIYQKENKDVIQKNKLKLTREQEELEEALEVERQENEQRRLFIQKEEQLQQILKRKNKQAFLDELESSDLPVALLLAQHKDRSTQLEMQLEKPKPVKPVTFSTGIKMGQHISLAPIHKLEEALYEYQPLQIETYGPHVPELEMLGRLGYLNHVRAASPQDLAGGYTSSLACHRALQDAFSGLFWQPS
Protocol: IC50 values of the compounds for CDK7 kinase were detected in Wuxi Biortus Biosciences Co. Ltd.
The compound powder was dissolved in 100% DMSO to prepare a 10 mM storage solution. The storage solution was further diluted to 0.5 mM as the initial concentration, and continuously diluted 3 times to obtain 10 compound solutions with different concentrations. The compound and enzyme were pre-incubated for 0 minutes and 60 minutes, respectively, using duplicate detection.
was used as a positive control, using Mobility shift say method, to detect CDK kinase (such as CDK7, CDK9, CDK12 and CDK2) activity of the compound.

[8] = target: T1, CDK7/Cyclin H/MAT1 kinase; assay: Enzyme activity test, mobility shift assay (Table 1); assay type: biochemical; conditions: 2 mM ATP; pre-incubated 0 and 60 minutes
[9] = target: CDK12 (aa686-1082)/Cyclin K (Homo sapiens (Human), UniProt Q9NYV4); assay: as above; assay type: biochemical; conditions: 2 mM ATP; read-out: CDK12 kinase IC50
Chain of CDK12 (aa686-1082)/Cyclin K (Q9NYV4 686-1082): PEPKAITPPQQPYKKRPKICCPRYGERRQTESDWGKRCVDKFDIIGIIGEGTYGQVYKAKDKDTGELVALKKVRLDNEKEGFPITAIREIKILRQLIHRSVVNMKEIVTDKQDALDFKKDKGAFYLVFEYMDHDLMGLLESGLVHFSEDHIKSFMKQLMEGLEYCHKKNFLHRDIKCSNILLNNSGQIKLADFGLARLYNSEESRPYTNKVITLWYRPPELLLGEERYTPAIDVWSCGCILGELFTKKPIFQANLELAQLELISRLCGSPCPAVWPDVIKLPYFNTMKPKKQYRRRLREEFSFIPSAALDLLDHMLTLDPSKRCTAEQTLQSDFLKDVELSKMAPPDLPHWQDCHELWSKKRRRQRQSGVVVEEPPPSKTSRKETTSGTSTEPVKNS
Chain of CDK12 (aa686-1082)/Cyclin K (O75909 whole entry partner, the tested form may be a part): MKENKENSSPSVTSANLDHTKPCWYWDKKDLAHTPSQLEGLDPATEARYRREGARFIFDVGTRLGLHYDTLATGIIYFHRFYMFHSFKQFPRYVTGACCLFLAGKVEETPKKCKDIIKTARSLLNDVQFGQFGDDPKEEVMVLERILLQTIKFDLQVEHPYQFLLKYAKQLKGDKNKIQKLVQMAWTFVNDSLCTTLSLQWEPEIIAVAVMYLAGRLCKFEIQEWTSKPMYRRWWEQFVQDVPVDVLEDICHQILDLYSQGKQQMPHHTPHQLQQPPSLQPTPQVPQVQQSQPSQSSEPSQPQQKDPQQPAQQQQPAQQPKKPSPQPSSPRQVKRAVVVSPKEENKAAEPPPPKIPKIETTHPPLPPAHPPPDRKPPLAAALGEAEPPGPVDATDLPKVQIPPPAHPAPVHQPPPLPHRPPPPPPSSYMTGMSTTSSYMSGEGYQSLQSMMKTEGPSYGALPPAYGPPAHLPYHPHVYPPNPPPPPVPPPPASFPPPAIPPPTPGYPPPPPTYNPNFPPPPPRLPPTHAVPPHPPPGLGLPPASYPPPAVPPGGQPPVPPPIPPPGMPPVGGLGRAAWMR
Outline: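 Mobility shift kinase assay on CDK9/Cyclin T1 and CDK12 (aa686-1082)/Cyclin K. Ten-point 3-fold dilution series started from a 0.5 mM intermediate solution in DMSO, with compound–enzyme pre-incubation of 0 or 60 min, in duplicate. Staurosporine served as positive control.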

CDK9/Cyclin Tl = CDK9/Cyclin Tl (Homo sapiens (Human), UniProt P50750); assay: as above; assay type: biochemical; conditions: 2 mM ATP; read-out: CDK9 kinase IC50
Chain of CDK9/Cyclin Tl (P50750 whole entry): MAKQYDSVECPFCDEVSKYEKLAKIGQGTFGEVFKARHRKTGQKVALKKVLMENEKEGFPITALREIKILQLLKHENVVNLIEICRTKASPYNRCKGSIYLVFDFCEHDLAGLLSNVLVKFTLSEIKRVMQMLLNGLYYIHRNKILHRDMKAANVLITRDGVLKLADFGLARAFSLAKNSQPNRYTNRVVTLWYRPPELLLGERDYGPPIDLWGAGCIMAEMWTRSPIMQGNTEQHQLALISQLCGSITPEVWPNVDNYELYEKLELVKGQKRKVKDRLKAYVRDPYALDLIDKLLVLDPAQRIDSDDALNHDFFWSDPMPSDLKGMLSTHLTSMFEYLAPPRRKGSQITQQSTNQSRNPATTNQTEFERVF
Chain of CDK9/Cyclin Tl (O60563 whole entry partner): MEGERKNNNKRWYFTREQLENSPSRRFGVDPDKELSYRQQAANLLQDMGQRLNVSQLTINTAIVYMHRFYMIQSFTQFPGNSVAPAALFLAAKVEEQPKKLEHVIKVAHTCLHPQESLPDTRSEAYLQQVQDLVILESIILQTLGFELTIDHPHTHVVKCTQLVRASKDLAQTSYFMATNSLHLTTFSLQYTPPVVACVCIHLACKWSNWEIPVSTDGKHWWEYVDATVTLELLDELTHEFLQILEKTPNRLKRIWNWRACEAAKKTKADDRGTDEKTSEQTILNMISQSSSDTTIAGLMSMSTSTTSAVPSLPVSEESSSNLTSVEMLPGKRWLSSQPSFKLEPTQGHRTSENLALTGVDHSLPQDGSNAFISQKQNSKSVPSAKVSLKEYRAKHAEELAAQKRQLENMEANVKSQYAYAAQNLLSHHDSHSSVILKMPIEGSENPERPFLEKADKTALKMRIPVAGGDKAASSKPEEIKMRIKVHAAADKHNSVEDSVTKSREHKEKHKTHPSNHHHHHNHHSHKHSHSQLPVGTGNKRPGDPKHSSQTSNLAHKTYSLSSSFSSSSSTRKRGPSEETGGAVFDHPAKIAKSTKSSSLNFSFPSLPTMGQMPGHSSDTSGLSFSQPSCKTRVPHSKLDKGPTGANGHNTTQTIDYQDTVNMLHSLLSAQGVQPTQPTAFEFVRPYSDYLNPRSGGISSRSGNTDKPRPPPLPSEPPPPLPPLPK
Outline: (§5)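 Human CDK9/Cyclin T1 and CDK2/Cyclin E1 activity measured by mobility shift assay. Compounds tested as 10-point, 3-fold dilution series starting at 0.5 mM (diluted from 10 mM DMSO stock), in duplicate, with 0 min or 60 min compound–enzyme pre-incubation.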

CDK2/Cyclin El = CDK2/Cyclin El (Homo sapiens (Human), UniProt P24941); assay: as above; assay type: biochemical; conditions: 2 mM ATP; read-out: CDK2 kinase IC50
Outline: as §5

SMILES | IC50 ([2]; Homo sapiens, A2780, 72 h) [nM] | IC50 [3] [nM] | pIC50 [7] | pIC50 [8] | pIC50 [9] | pIC50 (CDK9/Cyclin Tl) | pIC50 (CDK2/Cyclin El) | other results
CC1(C)CC[C@H](Nc2ncc(C(F)(F)F)c(-c3c[nH]c4c(P(C)(C)=O)c(C#N)ccc34)n2)CN1 [Compound 101, reference compound] | 8.76 | 246 | – | – | – | – | – | IC50 ([1]; Homo sapiens, WiDr, 72 h): 11.2 nM; IC50 [4]: 1660 nM; IC50 (lung cancer cell Calu-6): 207 nM; IC50 [5]: 88.8 nM; IC50 [6]: 112 nM
CC1(C)CC[C@H](Nc2ncc(C(F)(F)F)c(-c3c[nH]c4c(P(C)(C)=O)c(N5CCCCC5=O)ccc34)n2)CN1 [Example 02] | – | – | > 8.00 | – | – | – | – | –
Cc1cc(Nc2ncc(C(F)(F)F)c(-c3c[nH]c4cc(C#N)ccc34)n2)n[nH]1 [Example 12] | – | – | 6.30 to 8.00 | – | – | – | – | –
CC1(C)CC[C@H](Nc2ncc(C(F)(F)F)c(-c3c[nH]c4c(S(=O)(=O)C5CCCC5)c(C#N)ccc34)n2)CN1 [Example 23] | – | – | > 8.00 | – | – | – | – | –
CC1(C)CC[C@H](Nc2nc(-c3c[nH]c4c(P(C)(C)=O)c(C#N)ccc34)c3ccccc3n2)CN1 [Example 24] | – | – | 6.30 to 8.00 | – | – | – | – | –
Cc1cc(Nc2ncc(C(F)(F)F)c(-c3c[nH]c4c(P(C)(C)=O)c(C#N)ccc34)n2)n[nH]1 [Example 28] | – | – | > 8.00 | – | – | – | – | –
COC(=O)N[C@H]1CCC[C@@H](Nc2ncc(C(F)(F)F)c(-c3c[nH]c4c(P(C)(C)=O)c(C#N)ccc34)n2)C1 [Example 66] | – | – | > 8.00 | – | – | – | – | –
COC(=O)Nc1ccc2c(-c3nc(N[C@H]4CCCNC4)ncc3C(F)(F)F)c[nH]c2c1C1CC1 [Example T-17] | 4.76 | – | – | > 7.30 | < 6.30 | < 6.30 | < 6.30 | IC50 ([1]; Homo sapiens, WiDr, 72 h): 26.8 nM
COC(=O)Nc1ccc2c(-c3nc(N[C@H]4CCCNC4)ncc3C(F)(F)F)c[nH]c2c1C(F)(F)F [Example T-34] | 8.73 | 215 | – | > 7.30 | < 6.30 | < 6.30 | < 6.30 | IC50 [4]: 573 nM; IC50 [6]: 120 nM
COC(=O)Nc1ccc2c(-c3nc(N[C@H]4CCC(C)(C)NC4)ncc3C(F)(F)F)c[nH]c2c1Br [Example T-36] | – | 197 | – | > 7.30 | < 6.30 | < 6.30 | < 6.30 | IC50 [4]: 471 nM; IC50 (lung cancer cell Calu-6): 209 nM; IC50 [6]: 116 nM
C=C(C)c1c(NC(=O)OC)ccc2c(-c3nc(N[C@H]4CCCNC4)ncc3C(F)(F)F)c[nH]c12 [Example T-70] | – | – | – | > 7.30 | < 6.30 | < 6.30 | < 6.30 | IC50 [1]: 45.5 nM; IC50 [2]: 4.47 nM
COC(=O)Nc1ccc2c(-c3nc(N[C@H]4CCC5(CC5)NC4)ncc3C(F)(F)F)c[nH]c2c1Cl [Example T-81] | 1.26 | 55.5 | – | > 7.30 | < 6.30 | < 6.30 | < 6.30 | –
COC(=O)Nc1ccc2c(-c3nc(N[C@H]4CCC(C)(C)NC4)ncc3C(F)(F)F)c[nH]c2c1OCC(F)(F)F [Example T-91] | 8.75 | 80.2 | – | > 7.30 | – | – | – | –
